The species entered for one data set is Bos taurus. Briefly: Association constant of binding of compound with calf thymus DNA was determined by using equilibrium dialysis. As to conditions: cattle. On the technique in general: In equilibrium dialysis free small molecules cross a membrane that holds back macromolecules.
Data set [1] in a line: Partition Coefficient in n-octanol / water medium. In kind it is physicochemical.
Data set [2] in a line: Solubility of compound in water. In kind it is physicochemical. As to conditions: for solubility: water, read-out: S.
The test system of data set [3] is Ehrlich. Description: Compound was tested for the inhibition of RNA synthesis in Ehrlich cells by UV -A Irradiation relative to furoquinolinone. Type of data set: functional, Mus musculus.
In data set [4] the test system is Ehrlich. Description: Compound was tested for the inhibition of DNA synthesis in Ehrlich cells by UV -A Irradiation relative to furoquinolinone. In kind it is functional, Mus musculus.
For data set [5], the system named is Ehrlich. Description: Compound was tested for the inhibition of DNA synthesis in Ehrlich cells by UV -A Irradiation. Type of data set: functional, Mus musculus.
Data set [6] concerns Ehrlich. Description: Compound was tested for the inhibition of RNA synthesis in Ehrlich cells by UV -A Irradiation. Type of data set: functional, Mus musculus.
The nature of data set [7]: Surviving fraction was evaluated at concentration 2 uM in T2 phage. In kind it is functional.
In data set [8] the test system is Ehrlich. Description: Compound was tested for the inhibition of DNA synthesis in Ehrlich cells by incubation in the dark relative to furoquinolinone. Type of data set: functional, Mus musculus.
Data set [9] concerns Ehrlich. Briefly: Compound was tested for the inhibition of RNA synthesis in Ehrlich cells by incubation in the dark relative to furoquinolinone. In kind it is functional, Mus musculus.
The test system of data set [10] is Ehrlich. Description: Compound was tested for the inhibition of DNA synthesis in Ehrlich cells by incubation in the dark. Type of data set: functional. As to conditions: Mus musculus, read-out: ID50 (the source's name).
In data set [11] the test system is Ehrlich. Briefly: Compound was tested for the inhibition of RNA synthesis in Ehrlich cells by incubation in the dark. In kind it is functional. As to conditions: Mus musculus, read-out: ID50 (the source's name).
Data set [12] in a line: Surviving fraction was evaluated at concentration 4 uM in T2 phage. In kind it is functional.

≈ marks a conversion by molar mass, not a printed value.

In turn, `Cc1cc2c(o1)c(C)cc1c(C)cc(=O)oc12` showed a K in the data set listed under Bos taurus of 10100 M⁻¹. Also, the Partition coefficient in data set [1] is 1897. The solubility in data set [2] was 1460 µg/mL (≈ 6.4 mM). For the same compound, the Relative activity in the data set on Ehrlich [3] is reported as 16.83; in the data set on Ehrlich [4] it was 4.14. The Du stood at 0.0481 in the data set on Ehrlich [5] and 0.0303 in the data set on Ehrlich [6]. The compound further came in with a Surviving fraction in data set [7] of 0.6.

Turning to `COc1c2occc2cc2ccc(=O)oc12` [METHOXSALEN], in the data set filed under Bos taurus, the K came out at 736 M⁻¹. Moreover, the S in data set [2] (buffer) was 23 mg/mL. The Relative activity in the data set with Ehrlich [3] and in the data set with Ehrlich [4] was 1 each time. The figures for the Du in the data set with Ehrlich [5] and in the data set with Ehrlich [6] were 0.0116 and 0.0018, respectively. The compound also registered a Surviving fraction in data set [7] of 0.8.

Regarding `Cc1oc2c(C)cc3c(C)cc(=O)[nH]c3c2c1C`, the Relative activity is reported as 0.0926 in the data set with Ehrlich [8], 582 in the data set with Ehrlich [3], 0.256 in the data set on Ehrlich [9] and 102.6 in the data set with Ehrlich [4]. The IC50 in the data set on Ehrlich [10] worked out at 25.2 µM; in the data set on Ehrlich [11], 5.27 µM. Also, the Du with Ehrlich [5] is reported as 1.19; in the data set with Ehrlich [6] it was 1.048. Also, the Surviving fraction in data set [12] worked out at 0.7.

Regarding `Cc1cc2c(o1)c(C)cc1c(C)cc(=O)n(C)c12`, the K in the data set filed under Bos taurus came out at 11700 M⁻¹. In data set [1], this compound registered a Partition coefficient of 163.5. In addition, the solubility in data set [2] amounted to 4700 µg/mL (≈ 19.5 mM). Moreover, the Relative activity in the data set with Ehrlich [8] was determined as 1; with Ehrlich [3] it was 461; in the data set with Ehrlich [9] it was 1; in the data set on Ehrlich [4], 77.6. The IC50 was 2.33 µM in the data set with Ehrlich [10] and 1.35 µM in the data set with Ehrlich [11]. In addition, the Du was 0.9 with Ehrlich [5] and 0.803 with Ehrlich [6]. In [7], the Surviving fraction stood at 0.69.

For the origin of these results see ChEMBL document CHEMBL1129526, “Angular furoquinolinones, psoralen analogs: novel antiproliferative agents for skin diseases. Synthesis, biological activity, mechanism of action, and computer-aided studies” (J Med Chem, 1996).
